Key:
[1] = Degradation of compounds by PDS in dark and under visible light (HPLC); assay type: physicochemical; conditions: for pseudo-first-order rate constant kobs of ATZ degradation: [ATZ]0=10.0 μM, [PDS]0=5.0 mM, pH0=7.0, 25° C.
Method: Various reactions were carried out in 40 mL glass tubes with constant stirring at 300 rpm at 25±0.5° C. The temperature of solutions was monitored using a thermometer throughout the experiments. The initial concentration of atrazine (ATZ) was 10.0 uM, and the initial concentration of PDS was 5.0 mM. The irradiation fluxes emitted from the lamp and received by the solutions were measured with a LS125 UV light meter (Linshang Technology, Shenzhen, China) and a Solar Light PMA2100 radiometer (Solar Light Company, Philadelphia,
(§1) USA) 10 cm away from the lamp. The tubes in the dark treatments were covered with aluminum foil. To further confirm the PDS activation by visible light, experiments were also conducted with a UV filter film covering the simulated sunlight lamp to eliminate the effect of UV light. 1.0 mL of sample was withdrawn from each tube at different elapsed times (t=0, 1, 2, 3, 4, 5, 10, 20, 30, 60, 90, 120, and 240 min) and immediately quenched by 20 μL of 5.0 M sodium thiosulfate. The concentrations of all compositions in collected samples were measured with a Dionex UltiMate 3000 high-performance liquid chromatograph (HPLC) (Sunnyvale, USA). The settings of HPLC are provided in Example 1. The change in the concentration of PDS under different conditions was determined spectrophotometrically via an oxidation decolorization method and a modified iodometric titration method, respectively. The initial and final pH in each tube were measured with an Accumet AE150 pH meter (Westford, USA).
A simulated sunlight lamp was used as the light source in the instant example. The light fluxes that reaction solutions received in glass vials contained 39.8±0.5×10^−3 W/cm^2 of visible light in the wavelength (λ) range of 400-700 nm. The fluxes in the UV ranges contained 8.1±0.2×10^−6 W/cm^2 of UV-A (λ=315-400 nm) and 2.5±0.4×10^−6 W/cm^2 of UV-B (λ=280-315 nm), respectively. The UV-C flux (λ=230-280 nm) was negligible. Based on the flux measurement, UV light only accounted for <0.03% of the total light flux, and thus the light source utilized herein represents almost exclusively the visible light. The chemistry of PDS with visible light irradiation (PDS Light) and without (PDS Dark) was explored using six common herbicides and pharmaceuticals, namely atrazine (ATZ), sulfamethoxazole (SMX), trimethoprim (TMP), sulfadimethoxine (SDM), ibuprofen (IBP), and carbamazepine (CMZ) (FIGS. 1A-1F).

[2] = Quenching, anoxic and D2O experiments of ATZ degradation by PDS; assay type: physicochemical
Method: In order to identify the main reactive species involved in the degradation of ATZ by PDS under light and in dark, four quenchers were added in the beginning of the reactions to scavenge possible reactive species. The concentration of MeOH, tert-butanol (TBA), and L-histidine (L-his) was 0.5 M, and the concentration of superoxide dismutase (SOD) was 50 U·ml^−1. To analyze the impact of oxygen, purified N2 gas was used to purge the system for 10 min before the quenching experiments. All tubes were capped and then sealed with parafilm to maintain an anoxic environment throughout the reaction. The ATZ concentrations in the samples taken at various time points (t=0, 5, 10, 30, 60, 120, and 240 min) were measured using HPLC. The degradation of ATZ was also repeated with D2O as the solvent for phosphate buffer with the same experimental setups.

[3] = reported; cited from earlier work
[4] = Decay of PDS in dark and under visible light; assay type: physicochemical; conditions: for PDS decayed: within 240 min, regardless of the phosphate
Method: as §1
In order to verify whether PDS was directly activated by visible light, the impacts of solution constituents were examined. Because 10 mM phosphate buffer was added to control the initial pH to 7.0 to take into account of the typical pH of natural waters, the impact of phosphate buffer on the decay of PDS was investigated. […] Approximately 20% and 90% of PDS decayed within 240 min in dark and under visible light, respectively, regardless of the phosphate.

SMILES	ATZ degraded ([1]; PDS Dark, within 30 min)	pseudo-first-order rate constant kobs of ATZ degradation ([1]; PDS Dark)	pseudo-first-order rate constants of ATZ degradation with UV filter versus without UV filter ([1]; PDS Light, UV filter film between lamp and vials)	degradation of ATZ ([1]; PDS Light, in 30 min)	pseudo-first-order rate constant kobs of ATZ degradation ([1]; PDS Light, oxic)	ATZ degradation by PDS Light in presence of L-his ([2]; L-his 0.5 M)	effect of D2O on rate constant of ATZ degradation ([2]; PDS Dark)	pseudo-first-order rate constant for ATZ degradation in D2O relative to water ([2]; PDS Light)	pseudo-first-order rate constant kobs of ATZ degradation ([2]; PDS Light, anoxic condition (N2 purging), without scavengers)	ATZ degradation by PDS Light in presence of scavengers ([2]; all four scavengers (MeOH, TBA, L-his 0.5 M; SOD 50 U·ml^−1))	k(SO4^●−/ATZ) [3]	rate constant for R1 (photolysis of PDS by light) ([4]; based on the rate constant of PDS decay in dark and under light)	PDS decayed ([4]; in dark)	PDS decayed ([4]; under visible light)
CCNc1nc(Cl)nc(NC(C)C)n1 [ATZ, 2-chloro-4-ethylamino-6-isopropylamino-s-triazine]	37%	0.72±0.09×10^−2 min^−1	not statistically different	complete degradation	11±3.0×10^−2 min^−1	almost completely inhibited	negligible	more than 2.5 times	7.3±0.9×10^−2 min^−1	significantly hindered	2.6−4.2×10^9 M^−1·s^−1			
O=S(=O)([O-])OOS(=O)(=O)[O-].[K+].[K+] [PDS, Potassium peroxydisulfate]												around 8.8±1.1×10^−3 min^−1	Approximately 20%	~90%
